# Like-named read-outs stand apart in the source and are kept apart here.
# How the values were obtained:
# [1] = system: Enterococcus faecalis ATCC 29212; experiment: In vitro antibacterial activity, MIC, broth microdilution; type: cell-based; conditions: Enterococcus faecalis, ATCC29212; E. faecalis ATCC 29212; MHB; 37° C., 18 hours; read-out: minimum inhibiting concentration MIC
# Procedure: (§1) a) In vitro antibacterial activity The determination of the minimum inhibiting concentrations (MIC), with respect to Gram-positive and Gram-negative bacteria was carried out through the micromethod of gradual broth dilution in double series [National Committee for Clinical Laboratory Standards, 1990; Methods for dilution antimicrobial susceptibility tests for bacteria that grow aerobically; Approved standards […], Villanova, Pa.], by using Mueller Hinton Broth (MHB) as a culture medium. In the case of […] bacteria, horse serum at 5% (Streptococcus pneumoniae and Streptococcus pyogenes) was added to the medium. Roxithromycin and Clarithromycin [The Merck Index, XI Ed., No. 8253 and 2340, respectively] were used as reference macrolides. MIC, expressed as (μg/ml), were determined after incubation of the microplates at 37° C. for 18 hours, evaluating the lowest antibiotic concentration enabling the inhibition of bacterial development.
# [2] = system: Escherichia coli ATCC 25922; experiment: as above; type: cell-based; conditions: Escherichia coli, ATCC25922; E. coli ATCC 25922; MHB; 37° C., 18 hours; read-out: minimum inhibiting concentration MIC
# Procedure: as §1
# [3] = system: Klebsiella pneumoniae ZC 2; experiment: as above; type: cell-based; conditions: Klebsiella pneumoniae, ZC2; K. pneumoniae ZC 2; MHB; 37° C., 18 hours; read-out: minimum inhibiting concentration MIC
# Procedure: as §1
# [4] = system: Staphylococcus aureus PV 14; experiment: as above; type: cell-based; conditions: Staphylococcus aureus, PV14; S. aureus PV 14; MHB; 37° C., 18 hours; read-out: minimum inhibiting concentration MIC
# Procedure: as §1
# [5] = system: Streptococcus pneumoniae BS 3; experiment: as above; type: cell-based; conditions: Streptococcus pneumoniae, BS3; S. pneumoniae BS 3; MHB + 5% horse serum; 37° C., 18 hours; read-out: minimum inhibiting concentration MIC
# Procedure: as §1
# [6] = system: Streptococcus pneumoniae BS 4; experiment: as above; type: cell-based; conditions: Streptococcus pneumoniae, BS4; S. pneumoniae BS 4; MHB + 5% horse serum; 37° C., 18 hours; read-out: minimum inhibiting concentration MIC
# Procedure: as §1
# [7] = system: Streptococcus pyogenes A 26; experiment: as above; type: cell-based; conditions: Streptococcus pyogenes, A26; S. pyogenes A 26; MHB + 5% horse serum; 37° C., 18 hours; read-out: minimum inhibiting concentration MIC
# Procedure: as §1
# [8] = system: Streptococcus pyogenes C 203; experiment: as above; type: cell-based; conditions: Streptococcus pyogenes, C203; S. pyogenes C 203; MHB + 5% horse serum; 37° C., 18 hours; read-out: minimum inhibiting concentration MIC
# Procedure: as §1
# [9] = system: Streptococcus pyogenes C 203; experiment: In vivo antibacterial activity, experimental pulmonary infection in mouse; conditions: Streptococcus pyogenes, C203, ip, 240 h, intraperitoneal single dose, read-out: average protecting dose PD50
# Procedure: The in vivo antibacterial activity of the compounds of formula (I), expressed as average protecting dose PD50 (mg/Kg), was evaluated by means of experimental pulmonary infection induced in mouse by Streptococcus pyogenes (example 23).
# b) In vivo antibacterial activity
# The therapeutical effectiveness, expressed as average protecting dose (PD50), of the considered compounds of formula (I) was evaluated by experimental pulmonary infection induced in mouse by Streptococcus pyogenesC 203.
# Charles River albin mice (strain CD 1), of body weight comprised between 23-35 g, stabulated in groups of 6 for cage and normo-feeded with standard diet and water ad libitum were used. A suspension of S. pyogenes C 203 (corresponding about to 10^8 UFC) in tryptose broth (0.05 ml) was intranasally administered to each mouse anesthesized with a mixture of ethyl ether and chloroform.
# The compounds under examination were intraperitoneally administered as a single dose, in 0.2% Tween suspension, 24 hours before or 1 hour after the infection.
# Mice mortality observation was prolonged up to 10 days from the infection.
# PD50 calculation, expressed as (mg/Kg), was carried out through the analysis of probit.
# In vivo antibacterial activity, expressed as average protecting dose PD50 (mg/Kg), 24 hours before and 1 hour after the experimental pulmonary infection induced in mouse by Streptococcus pyogenes C 203, of the compounds 4, 10, 16-19, 21, 23, 26-27, 29-30, 33-35 and 38 and of the reference compounds Roxithromycin and Clarithromycin.
Compound,MIC [1] [mg/L],MIC [2] [mg/L],MIC [3] [mg/L],MIC [4] [mg/L],MIC [5] [mg/L],MIC [6] [mg/L],MIC [7] [mg/L],MIC [8] [mg/L],ED50 ([9]; 1 hour after infection) [mg/kg],ED50 ([9]; 24 hours before infection) [mg/kg]
"CC[C@H]1OC(=O)[C@H](C)[C@@H](O[C@H]2C[C@@](C)(OC)[C@@H](O)[C@H](C)O2)[C@H](C)[C@@H](O[C@@H]2O[C@H](C)C[C@H](N(C)C)[C@H]2O)[C@](C)(O)C[C@@H](C)/C(=N\OCCNCCCCCCNCc2ccccc2C(F)(F)F)[C@H](C)[C@@H](O)[C@]1(C)O [Compound 21, Erythromycin A (E)-9-[0-[2-[6-[(2-trifluoromethylphenyl)methylamino]hexylamino]ethyl]oxime]]",2,4,16,1,0.0078,0.0039,0.0078,0.0156,0.82,5.95
"CC[C@H]1OC(=O)[C@H](C)[C@@H](O[C@H]2C[C@@](C)(OC)[C@@H](O)[C@H](C)O2)[C@H](C)[C@@H](O[C@@H]2O[C@H](C)C[C@H](N(C)C)[C@H]2O)[C@](C)(O)C[C@@H](C)/C(=N\OCCNCCCCCCNCc2cccc(C(F)(F)F)c2)[C@H](C)[C@@H](O)[C@]1(C)O [Compound 19, Erythromycin A (E)-9-[0-[2-[6-[(3-trifluoromethylphenyl)methylamino]hexylamino]ethyl]oxime]]",2,2,8,1,0.0156,0.0078,0.0156,0.0156,1.95,4.84
"CC[C@H]1OC(=O)[C@H](C)[C@@H](O[C@H]2C[C@@](C)(OC)[C@@H](O)[C@H](C)O2)[C@H](C)[C@@H](O[C@@H]2O[C@H](C)C[C@H](N(C)C)[C@H]2O)[C@](C)(O)C[C@@H](C)/C(=N\OCCNCCCCCCNCc2ccc(-c3ccccc3)cc2)[C@H](C)[C@@H](O)[C@]1(C)O [Compound 30, Erythromycin A (E)-9-[0-[2-[6-[(biphenyl-4-yl)methylamino]hexylamino]ethyl]oxime]]",1,1,2,0.5,0.0156,0.0156,0.0156,0.0078,19.3,19.3
"CC[C@H]1OC(=O)[C@H](C)[C@@H](O[C@H]2C[C@@](C)(OC)[C@@H](O)[C@H](C)O2)[C@H](C)[C@@H](O[C@@H]2O[C@H](C)C[C@H](N(C)C)[C@H]2O)[C@](C)(O)C[C@@H](C)/C(=N\OCCNCCCCCCNCc2ccc(OC)cc2)[C@H](C)[C@@H](O)[C@]1(C)O [Compound 17, Erythromycin A (E)-9-[0-[2-[6-[(4-methoxyphenyl)methylamino]hexylamino]ethyl]oxime]]",4,4,16,0.25,0.0312,0.0625,0.0625,0.0039,1.17,8.16
"CC[C@H]1OC(=O)[C@H](C)[C@@H](O[C@H]2C[C@@](C)(OC)[C@@H](O)[C@H](C)O2)[C@H](C)[C@@H](O[C@@H]2O[C@H](C)C[C@H](N(C)C)[C@H]2O)[C@](C)(O)C[C@@H](C)/C(=N\OCCNCCCCCCNCc2ccc(C(F)(F)F)cc2)[C@H](C)[C@@H](O)[C@]1(C)O [Compound 23, Erythromycin A (E)-9-[0-[2-[6-[(4-trifluoromethylphenyl)methylamino]hexylamino]ethyl]oxime]]",2,1,4,1,0.0156,0.0078,0.0156,0.0156,1.46,–

# Reference: US5847092A (Zambon Group S.p.A., priority 1994, dated 1998)
